This is an account of results in patent US20240358707A1, “INHIBITORS OF BRUTON'S TYROSINE KINASE” (Pharmacyclics LLC, priority 2006, published 2024).

One assay has as its target Btk (Homo sapiens (Human), UniProt Q06187). The assay can be described thus: Btk acellular kinase assay (TR-FRET). It counts as biochemical. The settings on record: relative to compound 4. For orientation: TR-FRET usually uses a lanthanide donor and a delayed reading to cut background.
The test system of assay [1] is BCR-activated calcium flux in Ramos cells. The assay can be described thus: BCR-induced calcium flux assay in Ramos cells. The settings on record: Homo sapiens, read-out: Ramos Cell Ca Flux IC50. On the technique in general: A change in cytosolic calcium serves as a functional read-out for many receptors and channels.
A further assay deals with DHL-6 cells. The assay can be described thus: DHL-6 cell growth (Alamar Blue assay). It counts as cell-based. In general terms: The colour change of resazurin is a common sign of viable cells or microbes.

Sequence of Btk (Q06187 whole entry): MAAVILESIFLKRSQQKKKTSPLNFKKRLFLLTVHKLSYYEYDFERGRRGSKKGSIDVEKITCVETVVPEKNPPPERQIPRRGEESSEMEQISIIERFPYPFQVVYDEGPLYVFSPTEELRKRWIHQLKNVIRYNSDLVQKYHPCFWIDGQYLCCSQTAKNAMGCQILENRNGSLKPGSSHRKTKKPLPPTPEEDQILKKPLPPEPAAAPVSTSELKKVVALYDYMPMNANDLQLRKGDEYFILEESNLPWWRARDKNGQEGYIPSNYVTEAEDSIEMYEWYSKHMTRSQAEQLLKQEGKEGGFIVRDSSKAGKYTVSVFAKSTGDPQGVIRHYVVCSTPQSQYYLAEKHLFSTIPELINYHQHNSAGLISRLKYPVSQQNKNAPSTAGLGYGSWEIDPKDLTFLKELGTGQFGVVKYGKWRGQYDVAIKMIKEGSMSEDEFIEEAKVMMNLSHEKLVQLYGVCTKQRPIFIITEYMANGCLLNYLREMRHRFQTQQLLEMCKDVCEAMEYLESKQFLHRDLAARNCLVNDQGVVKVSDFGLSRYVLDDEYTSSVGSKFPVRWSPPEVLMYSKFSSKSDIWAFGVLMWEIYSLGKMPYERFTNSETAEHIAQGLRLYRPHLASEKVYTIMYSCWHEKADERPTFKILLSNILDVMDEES

In general, IC50 refers to the concentration needed to halve the response being measured. For the molecule `C/C=C/C(=O)N1CCCC(n2nc(-c3ccc(Oc4ccccc4)cc3)c3c(N)ncnc32)C1` (stereo not drawn) [Compound 5, (E)-1-(3-(4-amino-3-(4-phenoxyphenyl)-1H-pyrazolo[3,4-d]pyrimidin-1-yl)piperidin-1-yl)but-2-en-1-one], at Btk, the “Fold less potent than compound 4 (Btk)” value is on record as 28 fold. In addition, the IC50 in assay [1] came to 89 nM.

For the molecule `C=CS(=O)(=O)N1CCCC(n2nc(-c3ccc(Oc4ccccc4)cc3)c3c(N)ncnc32)C1` (stereo not drawn) [Compound 6, 1-(3-(4-amino-3-(4-phenoxyphenyl)-1H-pyrazolo[3,4-d]pyrimidin-1-yl)piperidin-1-yl)sulfonylethene], in assay [1], the IC50 stood at 92 nM.

Regarding `Nc1ncnc2c1c(-c1ccc(Oc3ccccc3)cc1)nn2C1CCCN(C(=O)CCl)C1` (stereo not drawn) [Compound 7], the IC50 in assay [1] came to 9 nM.

With `C#CC(=O)N1CCCC(n2nc(-c3ccc(Oc4ccccc4)cc3)c3c(N)ncnc32)C1` (stereo not drawn) [Compound 8, 1-(3-(4-amino-3-(4-phenoxyphenyl)-1H-pyrazolo[3,4-d]pyrimidin-1-yl)piperidin-1-yl)prop-2-yn-1-one], in assay [1], the IC50 was 9 nM.

As for `C=CC(=O)N1CCC(n2nc(-c3ccc(Oc4ccccc4)cc3)c3c(N)ncnc32)CC1` [Compound 9, 1-(4-(4-amino-3-(4-phenoxyphenyl)-1H-pyrazolo[3,4-d]pyrimidin-1-yl)piperidin-1-yl)prop-2-en-1-one], the IC50 in assay [1] was 48 nM.

For the molecule `C=CC(=O)N[C@H]1CC[C@@H](n2nc(-c3ccc(Oc4ccccc4)cc3)c3c(N)ncnc32)CC1` [Compound 10, N-((1s,4s)-4-(4-amino-3-(4-phenoxyphenyl)-1H-pyrazolo[3,4-d]pyrimidin-1-yl)cyclohexyl)acrylamide], the IC50 in assay [1] came to 3 nM.

For the molecule `C=CC(=O)N1CC[C@@H](n2nc(-c3ccc(Oc4ccccc4)cc3)c3c(N)ncnc32)C1` [Compound 11, 1-((R)-3-(4-amino-3-(4-phenoxyphenyl)-1H-pyrazolo[3,4-d]pyrimidin-1-yl)pyrrolidin-1-yl)prop-2-en-1-one], in assay [1], the IC50 stood at 24 nM.

With `C=CC(=O)N1CC[C@H](n2nc(-c3ccc(Oc4ccccc4)cc3)c3c(N)ncnc32)C1` [Compound 12, 1-((S)-3-(4-amino-3-(4-phenoxyphenyl)-1H-pyrazolo[3,4-d]pyrimidin-1-yl)pyrrolidin-1-yl)prop-2-en-1-one], in assay [1], the half-maximal inhibitory concentration (IC50) is 90 nM.

As for `CN(C)C/C=C/C(=O)N1CCC[C@@H](n2nc(-c3ccc(Oc4ccccc4)cc3)c3c(N)ncnc32)C1` [Compound 15, (E)-1-(3-(4-amino-3-(4-phenoxyphenyl)-1H-pyrazolo[3,4-d]pyrimidin-1-yl)piperidin-1-yl)-4-(dimethylamino)but-2-en-1-one], the “Growth of DHL-6 cells” value with DHL-6 cells (24 h treatment) and in the assay with DHL-6 cells (48 h treatment) was “inhibits growth” each time. In addition, in assay [1], the IC50 was found to be 36 nM.
